Results published in the supplement of paper PMC10331698.
± gives the standard deviation of the averaged measurements.

Tests used:
Test in all cases: level (log10 ratio to DMSO vehicle control); higher = higher biomarker level / cell amount than vehicle control
[1] = compound: C=C(C)C(=O)OCCC(F)(F)C(F)(F)C(F)(F)C(F)(F)C(F)(F)C(F)(F)F [6:2 Fluorotelomer methacrylate]; settings: in DMSO
Procedure: (§1)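 BioMAP Diversity Plus panel of 12 human primary cell co-culture systems (3C, 4H, LPS, SAg, BT, BF4T, BE3C, CASM3C, HDF3CGF, KF3CT, MyoF, Mphg). Compounds were added 1 h before stimulation and left for 24 h (MyoF 48 h; BT 72 h for soluble read-outs or 6 d for IgG). Biomarkers were read by ELISA, cytotoxicity by SRB, PBMC viability and proliferation by Alamar Blue. Each well value was divided by the mean of 8 DMSO control wells on the same plate and log10 transformed; duplicate blinded samples were tested at 4 concentrations.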

[2] = compound: C=CC(=O)OCC(F)(F)C(F)(F)C(F)(F)COC(=O)C=C [1H,1H,5H,5H-Perfluoro-1,5-pentanediol diacrylate]; settings: 6700 nM; in DMSO
Procedure: as §1

[3] = compound: COC(=O)C(F)(F)C(F)(F)OC(F)(C(F)(F)F)C(F)(F)OC(F)=C(F)F [Methyl perfluoro(3-(1-ethenyloxypropan-2-yloxy)propanoate)]; settings: in DMSO
Procedure: as §1

[4] = compound: FC(F)(F)C(F)(F)C(F)(F)C(F)(F)C(F)(F)C(F)(F)C(F)(F)I [1-Iodopentadecafluoroheptane]; settings: in DMSO
Procedure: as §1

[5] = compound: FC(F)(F)C(F)(F)C(F)(F)C(F)(F)C(F)(F)C(F)(F)CC1CO1 [3-(Perfluorohexyl)-1,2-epoxypropane]; settings: in DMSO
Procedure: as §1

[6] = compound: FC(F)(F)C(F)(F)C(F)(F)CC1CO1 [1H,1H-Heptafluorobutyl epoxide]; settings: in DMSO
Procedure: as §1

[7] = compound: FC(F)(F)C(F)(F)C(F)(F)CI [Heptafluorobutyl iodide]; settings: in DMSO
Procedure: as §1

[8] = compound: FC(F)(F)C(F)(F)CNCC(F)(F)C(F)(F)F [Bis(1H,1H-perfluoropropyl)amine]; settings: in DMSO
Procedure: as §1

[9] = compound: NC(=O)C(F)(F)C(F)(F)C(F)(F)C(F)(F)C(N)=O [Octafluoroadipamide]; settings: in DMSO
Procedure: as §1

[10] = compound: NC(=O)C(F)(F)C(F)(F)C(F)(F)C(F)(F)F [Nonafluoropentanamide]; settings: in DMSO
Procedure: as §1

[11] = compound: NC(=O)C(F)(F)C(F)(F)C(F)(F)C(F)F; settings: in DMSO
Procedure: as §1

[12] = compound: NS(=O)(=O)C(F)(F)C(F)(F)C(F)(F)C(F)(F)C(F)(F)C(F)(F)F [Perfluorohexanesulfonamide]; settings: in DMSO
Procedure: as §1

[13] = compound: O=C(O)C(F)(F)C(F)(F)C(F)(F)C(F)(F)C(F)(F)C(F)(F)C(F)(F)C(F)(F)C(F)(F)C(F)F [11-H-Perfluoroundecanoic acid]; settings: in DMSO
Procedure: as §1

[14] = compound: O=C(O)C=CC(F)(C(F)(F)F)C(F)(F)F [3-(Perfluoroisopropyl)-2-propenoic acid]; settings: in DMSO
Procedure: as §1

[15] = compound: O=S(=O)(Cl)C(F)(F)C(F)(F)C(F)(F)C(F)(F)C(F)(F)C(F)(F)C(F)(F)C(F)(F)F [Perfluoro-1-octanesulfonyl chloride]; settings: in DMSO
Procedure: as §1

[16] = compound: O=S(=O)(F)C(F)(F)C(F)(F)C(F)(F)C(F)(F)C(F)(F)C(F)(F)C(F)(F)C(F)(F)F [Perfluorooctanesulfonyl fluoride]; settings: in DMSO
Procedure: as §1

[17] = compound: O=S(=O)(O)C(F)(F)C(F)(F)C(F)(F)C(F)(F)C(F)(F)C(F)(F)C(F)(F)C(F)(F)C(F)(F)C(F)(F)F [Sodium perfluorodecanesulfonate]; settings: in DMSO
Procedure: as §1

[18] = compound: O=S(=O)(O)CCC(F)(F)C(F)(F)C(F)(F)C(F)(F)C(F)(F)C(F)(F)F [6:2 Fluorotelomer sulfonic acid]; settings: in DMSO
Procedure: as §1

[19] = compound: OCC(F)(F)C(F)(F)C(F)(F)CO [Hexafluoroamylene glycol]; settings: in DMSO
Procedure: as §1

lMphg:M-CSF
level (log10) ([1]; 6700 nM): 0.0215 ± 0.0064 | level (log10) ([1]; 20000 nM): -0.016 ± 0.0071 | level (log10) ([1]; 60000 nM): -0.0125 ± 0.025 | level (log10) [2]: -0.0245 ± 0.0035 | level (log10) ([3]; 6700 nM): -0.0325 ± 0.042 | level (log10) ([3]; 20000 nM): -0.0335 ± 0.035 | level (log10) ([4]; 6700 nM): -0.0015 ± 0.042 | level (log10) ([4]; 20000 nM): 0.015 ± 0.0014 | level (log10) ([5]; 6700 nM): -0.01 ± 0.0071 | level (log10) ([5]; 20000 nM): -0.0305 ± 0.0078 | level (log10) ([5]; 60000 nM): -0.0145 ± 0.021 | level (log10) ([6]; 6700 nM): 0.0065 ± 0.013 | level (log10) ([6]; 20000 nM): -0.003 ± 0.011 | level (log10) ([6]; 60000 nM): 0.003 ± 0.04 | level (log10) ([7]; 6700 nM): -0.026 ± 0.014 | level (log10) ([7]; 20000 nM): -0.0165 ± 0.005 | level (log10) ([7]; 60000 nM): -0.0245 ± 0.039 | level (log10) ([8]; 6700 nM): -0.007 ± 0.011 | level (log10) ([8]; 20000 nM): -0.0145 ± 0.022 | level (log10) ([8]; 60000 nM): 0.0165 ± 0.021 | level (log10) ([9]; 6700 nM): -0.017 ± 0.0028 | level (log10) ([9]; 20000 nM): -0.0065 ± 0.0035 | level (log10) ([9]; 60000 nM): 0.0045 ± 0.00071 | level (log10) ([10]; 6700 nM): 0.004 ± 0.0071 | level (log10) ([10]; 20000 nM): 0.004 ± 0.017 | level (log10) ([10]; 60000 nM): 0.018 ± 0.0014 | level (log10) ([11]; 6700 nM): -0.0135 ± 0.0092 | level (log10) ([11]; 20000 nM): -0.018 ± 0.025 | level (log10) ([11]; 60000 nM): -0.0175 ± 0.015 | level (log10) ([12]; 6700 nM): -0.051 ± 0.072 | level (log10) ([12]; 20000 nM): -0.113 ± 0.037 | level (log10) ([12]; 60000 nM): -0.119 ± 0.051 | level (log10) ([13]; 6700 nM): -0.019 ± 0.0071 | level (log10) ([13]; 20000 nM): -0.007 ± 0.018 | level (log10) ([14]; 6700 nM): -0.0105 ± 0.0064 | level (log10) ([14]; 20000 nM): -0.021 ± 0.014 | level (log10) ([14]; 60000 nM): -0.015 ± 0.025 | level (log10) ([15]; 6700 nM): -0.023 ± 0.042 | level (log10) ([15]; 20000 nM): -0.012 ± 0.031 | level (log10) ([15]; 60000 nM): 0.0215 ± 0.04 | level (log10) ([16]; 6700 nM): -0.006 ± 0.03 | level (log10) ([16]; 20000 nM): -0.03 ± 0.016 | level (log10) ([16]; 60000 nM): -0.0335 ± 0.00071 | level (log10) ([17]; 1500 nM): -0.0215 ± 0.0035 | level (log10) ([17]; 4400 nM): -0.0255 ± 0.03 | level (log10) ([17]; 13000 nM): -0.013 ± 0.021 | level (log10) ([17]; 40000 nM): 0.0255 ± 0.028 | level (log10) ([18]; 6700 nM): 0.0045 ± 0.0078 | level (log10) ([18]; 20000 nM): -0.023 ± 0.028 | level (log10) ([18]; 60000 nM): -0.0145 ± 0.0064 | level (log10) ([19]; 6700 nM): -0.008 ± 0.0057 | level (log10) ([19]; 20000 nM): -0.009 ± 0.0071 | level (log10) ([19]; 60000 nM): 0.006 ± 0.0014

lMphg:SRB
level (log10) ([1]; 6700 nM): -0.0065 ± 0.025 | level (log10) ([1]; 20000 nM): -0.0115 ± 0.015 | level (log10) ([1]; 60000 nM): -0.0175 ± 0.00071 | level (log10) [2]: 0.001 ± 0.0014 | level (log10) ([3]; 6700 nM): 0.0025 ± 0.011 | level (log10) ([3]; 20000 nM): 0.0025 ± 0.011 | level (log10) ([4]; 6700 nM): -0.01 ± 0.0014 | level (log10) ([4]; 20000 nM): -0.0015 ± 0.0021 | level (log10) ([5]; 6700 nM): -0.012 ± 0.0042 | level (log10) ([5]; 20000 nM): -0.016 ± 0.0071 | level (log10) ([5]; 60000 nM): 0.0115 ± 0.005 | level (log10) ([6]; 6700 nM): -0.001 ± 0.0028 | level (log10) ([6]; 20000 nM): 0.0025 ± 0.0035 | level (log10) ([6]; 60000 nM): -0.002 ± 0.0085 | level (log10) ([7]; 6700 nM): -0.0035 ± 0.0035 | level (log10) ([7]; 20000 nM): 0.0065 ± 0.0092 | level (log10) ([7]; 60000 nM): 0.0045 ± 0.0064 | level (log10) ([8]; 6700 nM): -0.0085 ± 0.00071 | level (log10) ([8]; 20000 nM): -0.007 ± 0.0028 | level (log10) ([8]; 60000 nM): 0.009 ± 0.018 | level (log10) ([9]; 6700 nM): -0.004 ± 0.0014 | level (log10) ([9]; 20000 nM): 0 ± 0.0042 | level (log10) ([9]; 60000 nM): 0.008 ± 0.017 | level (log10) ([10]; 6700 nM): 0.003 ± 0.014 | level (log10) ([10]; 20000 nM): 0.003 ± 0.0071 | level (log10) ([10]; 60000 nM): -0.006 ± 0.0042 | level (log10) ([11]; 6700 nM): -0.008 ± 0.0057 | level (log10) ([11]; 20000 nM): -0.007 ± 0.0042 | level (log10) ([11]; 60000 nM): -0.0005 ± 0.018 | level (log10) ([12]; 6700 nM): -0.007 ± 0.0042 | level (log10) ([12]; 20000 nM): -0.015 ± 0.0028 | level (log10) ([12]; 60000 nM): -0.0645 ± 0.0064 | level (log10) ([13]; 6700 nM): -0.004 ± 0.0057 | level (log10) ([13]; 20000 nM): 0.017 ± 0.0099 | level (log10) ([14]; 6700 nM): -0.017 ± 0.0085 | level (log10) ([14]; 20000 nM): -0.012 ± 0.0099 | level (log10) ([14]; 60000 nM): -0.0085 ± 0.012 | level (log10) ([15]; 6700 nM): -0.004 ± 0.0014 | level (log10) ([15]; 20000 nM): -0.004 ± 0.011 | level (log10) ([15]; 60000 nM): -0.002 ± 0.0071 | level (log10) ([16]; 6700 nM): 0.005 ± 0.0099 | level (log10) ([16]; 20000 nM): -0.0085 ± 0.0092 | level (log10) ([16]; 60000 nM): -0.0015 ± 0.0092 | level (log10) ([17]; 1500 nM): -0.0075 ± 0.012 | level (log10) ([17]; 4400 nM): -0.0025 ± 0.00071 | level (log10) ([17]; 13000 nM): -0.001 ± 0.0099 | level (log10) ([17]; 40000 nM): -0.011 ± 0.0099 | level (log10) ([18]; 6700 nM): -0.001 ± 0.011 | level (log10) ([18]; 20000 nM): 0.0125 ± 0.019 | level (log10) ([18]; 60000 nM): -0.002 ± 0.018 | level (log10) ([19]; 6700 nM): 0.0055 ± 0.015 | level (log10) ([19]; 20000 nM): 0.007 ± 0.02 | level (log10) ([19]; 60000 nM): -0.002
